Laboratory results as given in US8252832B2, “Kinesin inhibitors as cancer therapeutics” (Novartis AG, priority 2007, dated 2012).
Where two headings read alike, the source gives them in different places.

Columns and labels:
[1] = system: CAKI-1; experiment: CellTiter-Glo, NCI60 panel; format: cell-based; conditions: Renal; for GI50: Homo sapiens
Source text: (§1) Identification of tumor types that are the most sensitive to the KSP inhibitors of the present invention can be accomplished using an unbiased approach that uses several cell-based assays. The assays chosen were as follows: • CellTiter-Glo®. This is an assay designed to measure ATP concentration in a cell culture, and can be correlated to cell number. Briefly CellTiter-Glo® (Promega Corporation) is a homogeneous method using the single CellTiter-Glo® reagent to detect ATP wherein ATP in the assay drives the activity of a thermostable luciferase to create a luminescent signal which can then be measured and correlated with the number of viable cells. Briefly, for adherent cells, 1,000 to 5,000 cells/well were plated in 96-well plates (100 μl/well) and let to adhere for 24 hours before being treated with drug. For non-adherent cells, 1,000 to 10,000 cells/well were plated in 96-well plates (100 μl/well) and immediately treated with drug. Drug dilutions were prepared in DMSO at 1000 times the final concentration. These dilutions were then diluted 1/100 in growth media before being added to the cells (11 μl/well) to achieve the desired final concentration. After 48 h in a 37° C. tissue culture incubator, the plates were processed for the CellTiter-Glo®assay according to the manufacturer's instructions. Protocol for a 72 hour cell proliferation assay: The 72 hour assay was performed the same way as the 48 hour assay except for the following modifications: For adherent cells, 500 to 5,000 cells/well were plated in 96-well plates (90 μl/well cell growth media) and left to adhere for 24 hours before being treated with drug. For non-adherent cells, 1,000 to 10,000 cells/well were plated in 96-well plates (90 μl/well cell growth media) and immediately treated with drug. Data values presented represent the concentration of test compound required for a 50% reduction in growth. • LDH release. The Cytotoxicity Detection KitPLUS (LDH) assay (Roche Diagnostics, Manheim, Germany) measures the amount of LDH released in the media by dying cells; LDH catalyzes the conversion of lactate into pyruvate. The enzymatic reaction is coupled to a chemical reaction that uses a tetrazolium salt to form a formazan that is red and can be detected by its absorbance at 490 nm. This assay measures the amount of cell death after drug treatment. Cells were plated at 10,000 cells/well in 96-well plates (100 μl/well). Adherent cells were let to adhere for 24 hours before being treated with drug, whereas non-adherent cells were immediately treated with drug. Drug dilutions were prepared in DMSO at 1000 times the final concentration. These dilutions were then diluted 1/100 in growth media before being added to the cells (11 μl/well) to achieve the desired final concentration. After 48 h in a 37° C. tissue culture incubator, the plates were processed for the Cytotoxicity Detection KitPLUS (LDH) assay according to the manufacturer's instructions. The media only values were subtracted from all the data points before analysis. Data values presented correspond to the compound concentration wherein LDH output is at half maximal level. • Caspase-Glo® 3/7. The Caspase-Glo® 3/7 Assay (Promega Corporation) is a homogeneous luminescent assay that measures caspase-3/7 activities. The assay provides a proluminescent caspase-3/7 DEVD-aminoluciferin substrate and a thermostable luciferase in a reagent optimized for caspase-3/7 activity, luciferase activity and cell lysis. Adding the single Caspase-Glo® 3/7 Reagent results in cell lysis, followed by caspase cleavage of the substrate. This liberates free aminoluciferin, which is consumed by the luciferase, generating a luminescent signal. The signal is proportional to caspase-3/7 activity. Data values presented correspond to the compound concentration wherein caspase 3/7 activity is at half maximal level. […]

[2] = system: NCI/ADR-RES; experiment: CellTiter-Glo, NCI60 panel; format: cell-based; conditions: Ovarian; for GI50: Homo sapiens
Source text: as §1

[3] = system: K-562; experiment: CellTiter-Glo, NCI60 panel; format: cell-based; conditions: for GI50: Homo sapiens, K562, Leukemia
Source text: as §1

[4] = system: SN12C; experiment: CellTiter-Glo, NCI60 panel; format: cell-based; conditions: Renal; for GI50: Homo sapiens
Source text: as §1

[5] = system: RL; experiment: CellTiter-Glo, hematologic malignancy panel; format: cell-based, human; conditions: NHL; for GI50: Homo sapiens
Source text: as §1

[6] = system: MV4; 11Luc; experiment: CellTiter-Glo, hematologic malignancy panel; format: cell-based, human; conditions: AML; for GI50: Homo sapiens
Source text: as §1

[7] = system: KMS11-Luc; experiment: CellTiter-Glo, hematologic malignancy panel; format: cell-based, human; conditions: MM; for GI50: Homo sapiens
Source text: as §1

[8] = system: MV4; 11; experiment: CellTiter-Glo, hematologic malignancy panel; format: cell-based, human; conditions: AML; for GI50: Homo sapiens
Source text: as §1

[9] = KMS-11-luc disseminated disease model, host response; format: in vivo, mouse; conditions: q4d × 3, i.v.
Experimental: Experiments were performed using immunodeficient SCID-Beige female mice approximately 7-8 weeks old (Charles River Laboratories, Wilmington, Mass.). […] Routine animal care and assurance of welfare were as described above. […] Doses were adjusted to each animal's body weight. […] Approximately 10 minutes prior to imaging, mice were injected i.p. with 150 mg/kg luciferin (Xenogen Corporation, Alameda, Calif.), followed by anesthetization with isoflurane. Photon emission was measured using a charge coupled device camera in the IVIS imaging system (Xenogen Corporation). Briefly, a gray-scale image of the mice was captured, followed by an overlay of a bioluminescence map representing the spatial distribution of photons detected from cleaved luciferin in the cancer cells expressing luciferase. Signal intensity was quantified using a customized version of the IGOR Pro version 4.09A Software (WaveMetrics, Inc., Lake Oswego, Oreg.) called Living Image version 2.50.2 (Xenogen). The sum of all detected photon counts from the right+left legs were determined. Bioluminescence of cancer cells in the animals was measured by imaging on designated days until the first mice developed hind limb paralysis due to disease burden, the main end point for when to humanely euthanize mice. The day of euthanasia for each mouse was recorded, and the remaining percentage of mice surviving was plotted over time (Kaplan-Meier survival analysis). P values were calculated using the log-rank test (GraphPad Prism 4.0 software) to assess differences between treated and control groups (p<0.05 was considered significant). […] Data analysis was as described above.

[10] = GI50 in nM, read-out: Log(GI50) (converted)

In the case of `CC(C)(C)[C@H](c1nc(-c2cc(F)ccc2F)cn1Cc1ccccc1)N(CC[C@H](N)CF)C(=O)CO` [Compound IIa], the GI50 [1, 10] is reported as 10 nM, the GI50 ([1]; read-out: GI50) is reported as 10 nM and the “Differential vs mean Log(GI50)” value [1] is reported as −0.669. The GI50 [2, 10] was 4.18 nM, the GI50 ([2]; read-out: GI50) was 4.18 nM and the “Differential vs mean Log(GI50)” value [2] was −0.290. For the same compound, the GI50 [3, 10] was 0.218 nM, the GI50 ([3]; read-out: GI50) was 0.218 nM and the “Differential vs mean Log(GI50)” value ([3]; Leukemia) was 0.993. The GI50 [4, 10] was 10 nM, the GI50 ([4]; read-out: GI50) was 10 nM and the “Differential vs mean Log(GI50)” value [4] was −0.669. For the same compound, the GI50 [5, 10] was 20 nM, the GI50 ([5]; read-out: GI50) was 20 nM and the “Differential vs mean Log(GI50)” value [5] was −1.771. For the same compound, the “Differential vs mean Log(GI50)” value [6] was 0.509, the GI50 [6, 10] was 0.105 nM and the GI50 ([6]; read-out: GI50) was 0.11 nM. For the same compound, the GI50 [7, 10] was 0.29 nM, the GI50 ([7]; read-out: GI50) was 0.29 nM and the “Differential vs mean Log(GI50)” value [7] was 0.068. The “Differential vs mean Log(GI50)” value [8] was 0.644, the GI50 [8, 10] was 0.0769 nM and the GI50 ([8]; read-out: GI50) was 0.08 nM. For the same compound, the “Max. Δ body weight (Day)” value ([9]; 0.25 mg/kg, D14) was 2.1 ± 1.23 g, the “Max. Δ body weight (Day) (%)” value ([9]; 0.25 mg/kg, D14) was 5.0 ± 2.0% and the “Max. Δ body weight (Day)” value ([9]; 0.5 mg/kg, D14) was 2.5 ± 0.23 g. The “Max. Δ body weight (Day) (%)” value ([9]; 0.5 mg/kg, D14) was 6.7 ± 1.1%, the “Max. Δ body weight (Day)” value ([9]; 1 mg/kg, D13) was -0.74 ± 0.75 g and the “Max. Δ body weight (Day) (%)” value ([9]; 1 mg/kg, D13) was −3.3 ± 4.0%.
